# Where two headings read alike, the source gives them in different places.
# Tests used:
# Assay type in all cases: cell-based
# [1] = tested on: H. influenzae ATCC 10211 and E. coli ATCC 25922; test: MIC, summary over Gram-negative bacteria
# Protocol: (§1) Representative compounds were assayed for antimicrobial activity as follows: Minimum Inhibitory Concentrations (“MICs”) were determined by the microbroth dilution method as per NCCLS guidelines (National Committee for Clinical Laboratory Standards, 2000), except that all growth incubations were conducted at 37° C. Bacterial cultures were tested in the following bacteriological media: S. aureus, S. epidermidis, and E. coli in Cation-Adjusted Mueller-Hinton Broth, S. pneumoniae in THY Broth supplemented with 1 mg/mL catalase under 5% CO2 atmosphere, S. pyogenes in THY Broth, E. faecalis in BHI Broth, H. influenzae in BHI Broth supplemented with 0.75 μL of 1 mg/mL NAD and 150 μL of 1 mg/ml hematin per 5 mL, and M smegmatis in Middlebrook Broth plus ADC Enrichment.
# [2] = tested on: Haemophilus influenzae ATCC10211; test: MIC, microbroth dilution
# In short: (§2)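 MICs by microbroth dilution following NCCLS guidelines, with all growth incubations at 37 °C. S. aureus strains grown in cation-adjusted Mueller-Hinton broth; H. influenzae in BHI broth with added NAD and hematin; M. smegmatis in Middlebrook broth plus ADC enrichment.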
# [3] = tested on: Staphylococcus epidermidis ATCC12228; test: MIC, microbroth dilution; settings: rifS, Cation-Adjusted Mueller-Hinton Broth, 37° C.
# In short: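 Broth microdilution per NCCLS, 37 °C incubation. Media: cation-adjusted MHB (S. aureus, incl. rpoB mutant), BHI + NAD + hematin (H. influenzae), Middlebrook + ADC (M. smegmatis).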
# [4] = tested on: Streptococcus pneumoniae ATCC6303; test: MIC, microbroth dilution; settings: rifS, THY Broth supplemented with 1 mg/mL catalase under 5% CO2, 37° C.
# [5] = tested on: Staphylococcus aureus ATCC29213; test: MIC, microbroth dilution; settings: rifS, Cation-Adjusted Mueller-Hinton Broth, 37° C., read-out: MIC
# In short: as §2
# [6] = tested on: Streptococcus pyogenes ATCC19615; test: MIC, microbroth dilution; settings: rifS, THY Broth, 37° C.
# [7] = tested on: Escherichia coli ATCC25922; test: MIC, microbroth dilution; settings: rifS, Cation-Adjusted Mueller-Hinton Broth, 37° C.
# [8] = tested on: Enterococcus faecalis ATCC29212; test: MIC, microbroth dilution; settings: rifS, BHI Broth, 37° C., read-out: MIC
# In short: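 Minimum Inhibitory Concentrations against Enterococcus faecalis were measured by microbroth dilution following NCCLS guidelines (National Committee for Clinical Laboratory Standards, 2000). The bacteria were grown in BHI Broth. Unlike the standard protocol, every growth incubation was carried out at 37° C.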
# [9] = tested on: Mycobacterium smegmatis ATCC700084; test: MIC, microbroth dilution
# In short: as §2
# [10] = tested on: Staphylococcus aureus ATCC29213 rpoB^D417Y; test: microbe, parasite or virus in culture
# Protocol: as §1
# [11] = tested on: Staphylococcus aureus ATCC29213 rpoB^H418Y; test: microbe, parasite or virus in culture
# Protocol: as §1
# [12] = MIC, summary over rifampin-susceptible Gram-positive strains; settings: read-out: MICs
# Protocol: as §1
# [13] = Mycolicibacterium smegmatis, ATCC700084, rifS, Middlebrook Broth plus ADC Enrichment, 37° C., read-out: MIC
MIC [5] [µg/mL],MIC [8] [µg/mL],"MIC [9, 13] [µg/mL]",SMILES,also measured
0.002 to 1.95,0.25 to 62,0.063 to 31,COc1c(N2CCN(C(=O)CNC(=O)O[C@H]3[C@H](C)[C@H](O)[C@H](C)[C@@H](O)[C@@H](C)/C=C/C=C(/C)C(=O)NC4=C(N5CCOCC5)C(=O)c5c(c(O)c(C)c6c5C(=O)[C@@](C)(O/C=C/[C@H](OC)[C@H]3C)O6)C4=O)CC2)c(F)cc2c(=O)c(C(=O)O)cn(C3CC3)c12 [Example 64],
0.002 to 1.95,0.25 to 62,0.063 to 31,"CO[C@H]1/C=C/O[C@@]2(C)Oc3c(C)c(O)c4c(c3C2=O)C(=O)C(N2CCOCC2)=C(NC(=O)/C(C)=C\C=C\[C@H](C)[C@H](O)[C@@H](C)[C@@H](O)[C@@H](C)[C@H](OC(=O)NCCc2ccc(Cl)cc2)[C@@H]1C)C4=O [Example 38, 25-O-Desacetyl-(carbonyl-2-(4-Chloro-phenyl)-ethylamine) 3-morpholino rifamycin S]",
0.002 to 1.95,0.25 to 62,0.063 to 31,CO[C@H]1/C=C/O[C@@]2(C)Oc3c(C)c(O)c4c(c3/C2=N/O)C(=O)C(N2CCOCC2)=C(NC(=O)/C(C)=C\C=C\[C@H](C)[C@H](O)[C@@H](C)[C@@H](O)[C@@H](C)[C@H](OC(=O)NCCN(C)C)[C@@H]1C)C4=O [Example 69],
0.002 to 1.95,0.25 to 62,0.063 to 31,"CCN(CC)C(=O)O[C@H]1[C@H](C)[C@H](O)[C@H](C)[C@@H](O)[C@@H](C)/C=C/C=C(/C)C(=O)NC2=C(N3CCOCC3)C(=O)c3c(c(O)c(C)c4c3C(=O)[C@@](C)(O/C=C/[C@H](OC)[C@H]1C)O4)C2=O [Example 10, 25-O-Desacetyl-(1-carbonyl-2-diethylamine) 3-morpholino rifamycin S]",
0.002 to 1.95,0.25 to 62,0.063 to 31,"CO[C@H]1/C=C/O[C@@]2(C)Oc3c(C)c(O)c4c(c3C2=O)C(=O)C(N2CCOCC2)=C(NC(=O)/C(C)=C\C=C\[C@H](C)[C@H](O)[C@@H](C)[C@@H](O)[C@@H](C)[C@H](OC(=O)NCc2ccc(N(C)C)cc2)[C@@H]1C)C4=O [Example 36, 25-O-Desacetyl-(carbonyl-(4-aminomethyl-phenyl)-dimethyl-amine) 3-morpholino rifamycin S]",
0.002 to 1.95,0.25 to 62,0.063 to 31,"CO[C@H]1/C=C/O[C@@]2(C)Oc3c(C)c(O)c4c(c3C2=O)C(=O)C(N2CCOCC2)=C(NC(=O)/C(C)=C\C=C\[C@H](C)[C@H](O)[C@@H](C)[C@@H](O)[C@@H](C)[C@H](OC(=O)NCCc2cccs2)[C@@H]1C)C4=O [Example 19, 25-O-Desacetyl-(1-carbonyl-2-thiophen-2-yl-ethylamine) 3-morpholino rifamycin S]",
0.002 to 1.95,0.25 to 62,0.063 to 31,"CO[C@H]1/C=C/O[C@@]2(C)Oc3c(C)c(O)c4c(c3C2=O)C(=O)C(N2CCOCC2)=C(NC(=O)/C(C)=C\C=C\[C@H](C)[C@H](O)[C@@H](C)[C@@H](O)[C@@H](C)[C@H](OC(=O)NCC#Cc2cnc3ccccc3c2)[C@@H]1C)C4=O [Example 45, 25-O-Desacetyl-(carbonyl-3-quinolin-3-yl-prop-2-ynylamine) 3-morpholino rifamycin S]",
0.002 to 1.95,0.25 to 62,0.063 to 31,"CO[C@H]1/C=C/O[C@@]2(C)Oc3c(C)c(O)c4c(c3C2=O)C(=O)C(N2CCOCC2)=C(NC(=O)/C(C)=C\C=C\[C@H](C)[C@H](O)[C@@H](C)[C@@H](O)[C@@H](C)[C@H](OC(=O)N2CCN(CCNc3ccc(C(=NO)Nc5ccccc5)cc3C(F)(F)F)CC2)[C@@H]1C)C4=O [Example 49, 25-O-Desacetyl-(carbonyl-N-hydroxy-N′-phenyl-4-(2-piperazin-1-yl-ethylamino)-3-trifluoromethyl-benzamidine) 3-morpholino rifamycin S]",
0.002 to 1.95,0.25 to 62,0.063 to 31,"CO[C@H]1/C=C/O[C@@]2(C)Oc3c(C)c(O)c4c(c3C2=O)C(=O)C(N2CCOCC2)=C(NC(=O)/C(C)=C\C=C\[C@H](C)[C@H](O)[C@@H](C)[C@@H](O)[C@@H](C)[C@H](OC(=O)NCc2cc(-c3ccccn3)no2)[C@@H]1C)C4=O [Example 47, 25-O-Desacetyl-(carbonyl-C-(3-Pyridin-2-yl-isoxazol-5-yl)-methylamino) 3-morpholino rifamycin S]",
0.002 to 1.95,0.25 to 62,0.063 to 31,COc1c(N2CCC(NC3CCN(C(=O)O[C@H]4[C@H](C)[C@H](O)[C@H](C)[C@@H](O)[C@@H](C)/C=C/C=C(/C)C(=O)NC5=C(N6CCOCC6)C(=O)c6c(c(O)c(C)c7c6C(=O)[C@@](C)(O/C=C/[C@H](OC)[C@H]4C)O7)C5=O)CC3)C2)c(F)cc2c(=O)c(C(=O)O)cn(C3CC3)c12 (stereo partly drawn) [Example 56],
0.002 to 1.95,0.25 to 62,0.063 to 31,"CO[C@H]1/C=C/O[C@@]2(C)Oc3c(C)c(O)c4c(c3C2=O)C(=O)C(N2CCOCC2)=C(NC(=O)/C(C)=C\C=C\[C@H](C)[C@H](O)[C@@H](C)[C@@H](O)[C@@H](C)[C@H](OC(=O)NCc2ccc(Cl)cc2)[C@@H]1C)C4=O [Example 22, 25-O-Desacetyl-(carbonyl-4-chlorobenzyl) 3-morpholino rifamycin S]",
0.002 to 1.95,0.25 to 62,0.063 to 31,"CO[C@H]1/C=C/O[C@@]2(C)Oc3c(C)c(O)c4c(c3C2=O)C(=O)C(N2CCOCC2)=C(NC(=O)/C(C)=C\C=C\[C@H](C)[C@H](O)[C@@H](C)[C@@H](O)[C@@H](C)[C@H](OC(=O)N2CCN(c3cc5c(cc3F)c(=O)c(C(=O)O)cn5C3CC3)CC2)[C@@H]1C)C4=O [Example 16, 25-O-Desacetyl-(4-carbonyl-1-cyclopropyl-6-fluoro-4-oxo-7-piperazin-1-yl-1,4-dihydro-quinoline-3-carboxylic acid) 3-morpholino rifamycin S]",
0.002 to 1.95,0.25 to 62,0.063 to 31,"CO[C@H]1/C=C/O[C@@]2(C)Oc3c(C)c(O)c4c(c3C2=O)C(=O)C(N2CCOCC2)=C(NC(=O)/C(C)=C\C=C\[C@H](C)[C@H](O)[C@@H](C)[C@@H](O)[C@@H](C)[C@H](OC(=O)NCCc2ccccc2)[C@@H]1C)C4=O [Example 25, 25-O-Desacetyl-(carbonyl-3-phenylethylamino) 3-morpholino rifamycin S]",

SMILES,MIC [5] [µg/mL],MIC [8] [µg/mL],"MIC [9, 13] [µg/mL]",also measured
CO[C@H]1/C=C/O[C@@]2(C)Oc3c(C)c(O)c4c(O)c(c(/C=N/N5CCN(C)CC5)c(O)c4c3C2=O)NC(=O)/C(C)=C\C=C\[C@H](C)[C@H](O)[C@@H](C)[C@@H](O)[C@@H](C)[C@H](OC(C)=O)[C@@H]1C [rifampin],0.008,0.98,64,"MIC [1]: 0.24 to 16 µg/mL; MIC [2]: 0.24 µg/mL; MIC [3]: 0.03 µg/mL; MIC [4]: 0.061 µg/mL; MIC [6]: 0.013 µg/mL; MIC [7]: 16 µg/mL; MIC ([9]; mycobacterial strain M smegamatis ATCC 700084): 64 µg/mL; MIC ([10]; Staphylococcus aureus, ATCC29213): > 64 µg/mL; MIC ([10]; rifR, Cation-Adjusted Mueller-Hinton Broth, 37° C.): >64 µg/mL; MIC ([11]; ATCC29213, rifR, Cation-Adjusted Mueller-Hinton Broth, 37° C.): 7.8 µg/mL; MIC ([11]; ATCC29213, text, rifampin-resistant strain S. aureus ATCC 29213 RpoB^H418Y): 8 µg/mL; MIC [12]: 0.03 to 1.3 µg/mL"

# Reference: patent US7250413B2, “C-25 carbamate rifamycin derivatives with activity against drug-resistant microbes” (Cumbre Pharmaceuticals Inc., priority 2004, dated 2007)
